Laboratory results from PubChem BioAssay AID1259407 (Chemical Carcinogenesis Research Information System (CCRIS), 2018).
Active and inactive are the calls of the source. How the calls were made is not given here.

System: CCRIS mutagenicity, Ames/micronucleus/aberration tests
Test: CCRIS mutagenicity studies
[1] = Test System: AMES SALMONELLA TYPHIMURIUM, Strain/Indicator: TA98, Metabolic Activation: NONE, Method: PREINCUBATION
[2] = Test System: AMES SALMONELLA TYPHIMURIUM, Strain/Indicator: TA100, Metabolic Activation: NONE, Method: PREINCUBATION
[3] = Test System: AMES SALMONELLA TYPHIMURIUM, Strain/Indicator: TA98, Metabolic Activation: NONE, Method: STANDARD PLATE
[4] = Test System: AMES SALMONELLA TYPHIMURIUM, Strain/Indicator: TA100, Metabolic Activation: NONE, Method: STANDARD PLATE
[5] = Test System: AMES SALMONELLA TYPHIMURIUM, Strain/Indicator: TA102, Metabolic Activation: NONE, Method: STANDARD PLATE
[6] = Test System: AMES SALMONELLA TYPHIMURIUM, Strain/Indicator: TA98, Metabolic Activation: RAT, LIVER, S-9, AROCLOR 1254, Method: PREINCUBATION
[7] = Test System: AMES SALMONELLA TYPHIMURIUM, Strain/Indicator: TA100, Metabolic Activation: RAT, LIVER, S-9, AROCLOR 1254, Method: PREINCUBATION

CCCCCCOC(=O)c1ccccc1C(=O)OCCCCCC
mutagenic call (Test System: AMES SALMONELLA TYPHIMURIUM, Strain/Indicator: TA98, Metabolic Activation: HAMSTER, LIVER, S-9, AROCLOR 1254 (10%), Method: PREINCUBATION): inactive; negative
mutagenic call [1]: inactive; negative
mutagenic call (Test System: AMES SALMONELLA TYPHIMURIUM, Strain/Indicator: TA98, Metabolic Activation: RAT, LIVER, S-9, AROCLOR 1254 (10%), Method: PREINCUBATION): inactive; negative
mutagenic call (Test System: AMES SALMONELLA TYPHIMURIUM, Strain/Indicator: TA100, Metabolic Activation: HAMSTER, LIVER, S-9, AROCLOR 1254 (10%), Method: PREINCUBATION): inactive; negative
mutagenic call [2]: inactive; negative
mutagenic call (Test System: AMES SALMONELLA TYPHIMURIUM, Strain/Indicator: TA100, Metabolic Activation: RAT, LIVER, S-9, AROCLOR 1254 (10%), Method: PREINCUBATION): inactive; negative
mutagenic call (Test System: AMES SALMONELLA TYPHIMURIUM, Strain/Indicator: TA1535, Metabolic Activation: HAMSTER, LIVER, S-9, AROCLOR 1254 (10%), Method: PREINCUBATION): inactive; negative
mutagenic call (Test System: AMES SALMONELLA TYPHIMURIUM, Strain/Indicator: TA1535, Metabolic Activation: NONE, Method: PREINCUBATION): inactive; negative
mutagenic call (Test System: AMES SALMONELLA TYPHIMURIUM, Strain/Indicator: TA1535, Metabolic Activation: RAT, LIVER, S-9, AROCLOR 1254 (10%), Method: PREINCUBATION): inactive; negative
mutagenic call (Test System: AMES SALMONELLA TYPHIMURIUM, Strain/Indicator: TA1537, Metabolic Activation: HAMSTER, LIVER, S-9, AROCLOR 1254 (10%), Method: PREINCUBATION): inactive; negative
mutagenic call (Test System: AMES SALMONELLA TYPHIMURIUM, Strain/Indicator: TA1537, Metabolic Activation: NONE, Method: PREINCUBATION): inactive; negative
mutagenic call (Test System: AMES SALMONELLA TYPHIMURIUM, Strain/Indicator: TA1537, Metabolic Activation: RAT, LIVER, S-9, AROCLOR 1254 (10%), Method: PREINCUBATION): inactive; negative

CCOC(=O)C1(CCCCCCOCc2cccs2)CO1 (stereo not given)
mutagenic call [3]: active; positive
mutagenic call (Test System: AMES SALMONELLA TYPHIMURIUM, Strain/Indicator: TA98, Metabolic Activation: S-9, Method: STANDARD PLATE): active; positive
mutagenic call [4]: inactive; negative
mutagenic call (Test System: AMES SALMONELLA TYPHIMURIUM, Strain/Indicator: TA100, Metabolic Activation: S-9, Method: STANDARD PLATE): inactive; negative
mutagenic call [5]: inactive; negative
mutagenic call (Test System: AMES SALMONELLA TYPHIMURIUM, Strain/Indicator: TA102, Metabolic Activation: S-9, Method: STANDARD PLATE): inactive; negative
mutagenic call (Test System: AMES SALMONELLA TYPHIMURIUM, Strain/Indicator: TA1535, Metabolic Activation: NONE, Method: STANDARD PLATE): inactive; negative
mutagenic call (Test System: AMES SALMONELLA TYPHIMURIUM, Strain/Indicator: TA1535, Metabolic Activation: S-9, Method: STANDARD PLATE): inactive; negative
mutagenic call (Test System: AMES SALMONELLA TYPHIMURIUM, Strain/Indicator: TA1537, Metabolic Activation: NONE, Method: STANDARD PLATE): inactive; negative
mutagenic call (Test System: AMES SALMONELLA TYPHIMURIUM, Strain/Indicator: TA1537, Metabolic Activation: S-9, Method: STANDARD PLATE): inactive; negative

N=C(N)c1ccccc1
mutagenic call (Test System: AMES SALMONELLA TYPHIMURIUM, Strain/Indicator: TA98, Metabolic Activation: CO631 CELLS, Method: PREINCUBATION): inactive; negative
mutagenic call [1]: inactive; negative
mutagenic call (Test System: AMES SALMONELLA TYPHIMURIUM, Strain/Indicator: TA98, Metabolic Activation: RABBIT, LIVER, S-9, Method: PREINCUBATION): inactive; negative
mutagenic call (Test System: AMES SALMONELLA TYPHIMURIUM, Strain/Indicator: TA98, Metabolic Activation: RAT HEPATOCYTES, Method: PREINCUBATION): inactive; negative
mutagenic call (Test System: AMES SALMONELLA TYPHIMURIUM, Strain/Indicator: TA98, Metabolic Activation: RAT, LIVER, S-9, AROCLOR 1254, ATP, Method: PREINCUBATION): inactive; negative
mutagenic call [6]: inactive; negative
mutagenic call (Test System: AMES SALMONELLA TYPHIMURIUM, Strain/Indicator: TA100, Metabolic Activation: RABBIT, LIVER, S-9, Method: PREINCUBATION): inactive; negative
mutagenic call (Test System: AMES SALMONELLA TYPHIMURIUM, Strain/Indicator: TA100, Metabolic Activation: RAT HEPATOCYTES, Method: PREINCUBATION): inactive; negative
mutagenic call (Test System: AMES SALMONELLA TYPHIMURIUM, Strain/Indicator: TA100, Metabolic Activation: RAT, LIVER, S-9, AROCLOR 1254, ATP, Method: PREINCUBATION): inactive; negative
mutagenic call [7]: inactive; negative

C=CC1(C)OC(=O)N(c2cc(Cl)cc(Cl)c2)C1=O (stereo not given)
mutagenic call (End Point: IN VITRO MICRONUCLEUS, Test System: HUMAN HEPATOMA CELLS HEPG2, Metabolic Activation: NONE): inactive; negative; authors report a slight increase but not statistically significant

O.O.O.[Fe].[Fe]
mutagenic call (Test System: AMES SALMONELLA TYPHIMURIUM, Strain/Indicator: TA97, Metabolic Activation: NONE, Method: PREINCUBATION): inactive; negative
mutagenic call (Test System: AMES SALMONELLA TYPHIMURIUM, Strain/Indicator: TA97, Metabolic Activation: RAT, LIVER, S-9, AROCLOR 1254, Method: PREINCUBATION): inactive; negative
mutagenic call (Test System: AMES SALMONELLA TYPHIMURIUM, Strain/Indicator: TA102, Metabolic Activation: NONE, Method: PREINCUBATION): inactive; negative
mutagenic call (Test System: AMES SALMONELLA TYPHIMURIUM, Strain/Indicator: TA102, Metabolic Activation: RAT, LIVER, S-9, AROCLOR 1254, Method: PREINCUBATION): inactive; negative

O=S=O
mutagenic call (End Point: IN VIVO CHROMOSOMAL ABERRATIONS, Test System: BONE MARROW CELLS, Species: MOUSE, Strain/Sex: KUNMING/MALE, FEMALE, Route: INHALATION): active; positive; exposure up to 5 d not effective

C/C=C(\Cl)C=O
mutagenic call [2]: active; positive
mutagenic call (Test System: AMES SALMONELLA TYPHIMURIUM, Strain/Indicator: TA100, Metabolic Activation: NONE, Method: PREINCUBATION, LIQUID INCUBATION): active; positive

CNc1c(C)cc2ncccc2c1N
mutagenic call [1]: inactive; negative
mutagenic call [6]: inactive; negative
mutagenic call [2]: inactive; negative
mutagenic call [7]: inactive; negative

O=C1c2ccccc2CN2C(=O)c3ccccc3CN12
mutagenic call (Test System: AMES SALMONELLA TYPHIMURIUM, Strain/Indicator: TA98, Metabolic Activation: MOUSE, LIVER, S-9, PHENOBARBITAL AND 5,6-BENZOFLAVONE, Method: STANDARD PLATE): inactive; negative
mutagenic call [3]: inactive; negative
mutagenic call (Test System: AMES SALMONELLA TYPHIMURIUM, Strain/Indicator: TA100, Metabolic Activation: MOUSE, LIVER, S-9, PHENOBARBITAL AND 5,6-BENZOFLAVONE, Method: STANDARD PLATE): inactive; negative
mutagenic call [4]: inactive; negative
mutagenic call (Test System: AMES SALMONELLA TYPHIMURIUM, Strain/Indicator: TA102, Metabolic Activation: MOUSE, LIVER, S-9, PHENOBARBITAL AND 5,6-BENZOFLAVONE, Method: STANDARD PLATE): inactive; negative
mutagenic call [5]: inactive; negative
